Assay type in all cases: in vivo, mice
The subject of series [1] is doxorubicin-induced cardiotoxicity. Put plainly: Assessment of cardiac function by echocardiography in doxorubicin-induced cardiotoxicity model. The settings on record: 5 days after DOX; for heart rate (effect of treatment, in words): vs DOX vehicle; for end-systolic LV volume (effect of treatment): vs doxorubicin vehicle group; for anterior and posterior wall thickness in systole (effect of treatment): compound 180 mg/kg. The procedure: Cardiotoxicity was induced by a single intraperitoneal injection of doxorubicin (DOX) at 20 mg/kg. Doxorubicin was prepared at 2 mg/mL and volume of administration was 10 mL/Kg. • Group 1: Vehicle (i.p.) • Group 2: […] Doxorubicin (20 mg/kg)+compound 001 180 mg/kg • Group 4: Doxorubicin (20 mg/kg)+compound 010 180 mg/kg • Group 5: Doxorubicin (20 mg/kg)+compound 011 180 mg/kg Group Repartition: […] Mice were i.p treated with compounds 001, 010 and 01130 min before DOX injection. Mice were i.p treated with compounds 001,010 and 011 for the duration of the experiment (D0 to D5) once per day. Last injection occurred 24 hours before sacrifice. Echocardiography (ECG) was performed 5 days after doxorubicin injection in anesthetized (isoflurane 1.5-2%) animals with non-invasive two-dimensional echocardiography (VF16-5 probe, Siemens, Acuson NX3 Elite). After removing hairs on the chest, numeric images of the heart will be obtained in both parasternal long-axis and short axis views. The following cardiac function were assessed during ECG: • Left ventricle (LV) end-systolic and end-diastolic inner diameter, • LV end-systolic and end-diastolic volume, • Fractional shortening; • Ejection fraction; • Heart Rate; and • Anterior and posterior wall thickness in Diastole and in systole.

The test system is the same in series [2]. As to the kind of experiment: Body weight in doxorubicin-induced cardiotoxicity model. The settings on record: for body weight loss observed after doxorubicin administration (effect of treatment): DOX 20 mg/kg i.p. mice, compound 180 mg/kg i.p. daily, D5 vs before injection, vs DOX vehicle.
Series [3] has the same test system. As to the kind of experiment: Survival rate in doxorubicin-induced cardiotoxicity model. The settings on record: for survival rate (% of survival): DOX 20 mg/kg i.p. mice, compound 180 mg/kg i.p. once daily from 5 days before DOX to D5, 5 days after DOX. The procedure:
The aim of the present study was to evaluate, the effects of i.p. administration of compounds 001, 010 and 011 at 180 mg/kg in the progression of a cardiotoxicity induced by doxorubicin.
(§1) Cardiotoxicity was induced by a single intraperitoneal injection of doxorubicin (DOX) at 20 mg/kg. Doxorubicin was prepared at 2 mg/mL and volume of administration was 10 mL/Kg.
Mortality rate was followed-up all along the experimental phase.
(§2) • Group 1: Vehicle (i.p.) • Group 2: Doxorubicin (20 mg/kg) • Group 3: Doxorubicin (20 mg/kg)+compound 001 180 mg/kg • Group 4: Doxorubicin (20 mg/kg)+compound 010 180 mg/kg • Group 5: Doxorubicin (20 mg/kg)+compound 011 180 mg/kg Group Repartition:
At D0, mice received DOX (20 mg/kg) by intraperitoneal route.
(§3) The treatment with compounds 001, 010 and 011 was initiated from 5 days before DOX injection once per day from […] to D0.
(§4) Mice were i.p treated with compounds 001, 010 and 01130 min before DOX injection.
(§5) Mice were i.p treated with compounds 001,010 and 011 for the duration of the experiment (D0 to D5) once per day. Last injection occurred 24 hours before sacrifice.
The survival rate was recorded every day until the end of the experiment (D5).

For series [4] the test system is unchanged. As to the kind of experiment: Plasmatic LDH biomarker in doxorubicin-induced cardiotoxicity model. The following applies: plasma, 5 days after DOX. As to the method:
as §1, §2, §3, §4, §5
Retro-orbital blood collection was performed at the inclusion and at 1 and 5 days after the induction with DOX to assess biomarkers (especially LDH).
DOX mice were treated with compounds 001,010 and 011 (180 mg/kg) or vehicle. Plasmatic LDH (lactate dehydrogenase) was measured 5 days after doxorubicin injection.

Series [5] shares this test system. Put plainly: Heart weight in doxorubicin-induced cardiotoxicity model. The following applies: 5 days after DOX; for heart weight (effect of treatment): DOX 20 mg/kg mice, compound 180 mg/kg, vs DOX vehicle mice. As to the method:
as §1, §2, §3, §4, §5
At D5, heart and tibia were collected.

[6] abbreviates: DOX 20 mg/kg mice, compound 180 mg/kg i.p. daily.
Where [7] appears, read: doxorubicin 20 mg/kg + vehicle vs control group.
Setting [8] is: doxorubicin-treated mice (20 mg/kg, vehicle) vs control.

Structures are written as SMILES.

For the molecule `NC(=O)c1ccc[n+]([C@@H]2O[C@H](COP(=O)([O-])O)[C@@H](O)[C@H]2O)c1` [Compound 001, nicotinamide mononucleotide], in series [1] (setting [6]), the ejection fraction stood at 56.9±0.6%; the fractional shortening result was “around 38%”; the “heart rate (effect of treatment, in words)” value is on record as “increased”; the “end-systolic LV volume (effect of treatment)” value is “reduced”. In series [1] (DOX 20 mg/kg mice), the “anterior and posterior wall thickness in systole (effect of treatment)” value is listed as “non-significant increases”. The “body weight loss observed after doxorubicin administration (effect of treatment)” value (shortened to “body weight loss observed”) in series [2] was “significantly decreased”. In series [3], the “survival rate (% of survival)” value was determined as 78%. In addition, in series [4] (DOX 20 mg/kg mice, compound 180 mg/kg, vs DOX vehicle), the “decrease of LDH release / reduction in LDH levels” value was “more than 35%”.
For the molecule `NC(=O)c1ccc[n+]([C@@H]2O[C@H](COP(=O)([O-])OP(=O)([O-])OC[C@H]3O[C@H]([n+]4cccc(C(N)=O)c4)[C@H](O)[C@@H]3O)[C@@H](O)[C@H]2O)c1` [Compound 010], in series [1] (setting [6]), the ejection fraction worked out at 60.0±0.6%; the fractional shortening result is on record as “around 38%”; the heart rate came out at 470.1±18.8 bpm; the “heart rate (effect of treatment, in words)” value was “increased”. Besides, in series [1] (setting [6]), the “end-systolic LV volume (effect of treatment)” value is listed as “reduced”. The “anterior and posterior wall thickness in systole (effect of treatment)” value in series [1] (DOX 20 mg/kg mice) is listed as “non-significant increases”. Also, the “body weight loss observed” value in series [2] was “significantly decreased”. Further, in series [5], the “heart weight (effect of treatment)” value is on record as “tended to increase”. Besides, in series [3], the “survival rate (% of survival)” value is 98%.
With `NC(=O)c1ccc[n+]([C@H]2O[C@H](COP(=O)([O-])OP(=O)([O-])OC[C@H]3O[C@H]([n+]4cccc(C(N)=O)c4)[C@H](O)[C@@H]3O)[C@@H](O)[C@H]2O)c1` [Compound 011], in series [1] (setting [6]), the ejection fraction was 58.2±0.5%; the fractional shortening entry is “around 38%”; the “heart rate (effect of treatment, in words)” value is listed as “increased”; the “end-systolic LV volume (effect of treatment)” value was “reduced”. For the same molecule, the “anterior and posterior wall thickness in systole (effect of treatment)” value in series [1] (DOX 20 mg/kg mice) is reported as “non-significant increases”. The “body weight loss observed” value in series [2] is given as “significantly decreased”. Further, the “heart weight (effect of treatment)” value in series [5] is on record as “tended to increase”. Further, the “survival rate (% of survival)” value in series [3] was 100%.
Take `COc1cccc2c1C(=O)c1c(O)c3c(c(O)c1C2=O)C[C@@](O)(C(=O)CO)C[C@@H]3O[C@H]1C[C@H](N)[C@H](O)[C@H](C)O1` [doxorubicin, reference compound]: in series [1] (setting [7]), the “end-diastolic LV volume” value is on record as “without significative difference” and the “end-systolic LV volume” value is “significant increase”. Besides, the “anterior and posterior wall thickness in systole” value in series [1] (doxorubicin 20 mg/kg + vehicle vs control) is “significantly decreased”. For the same molecule, in series [1] (doxorubicin 20 mg/kg + vehicle), the heart rate stood at 365.1±23.9 bpm. The molecule further displayed an ejection fraction in series [1] (doxorubicin 20 mg/kg vehicle group) of 38.9±1.3%. In series [1] (setting [8]), the “LV internal diameter in diastole” value was “without significative difference” and the “LV internal diameter in systole” value is “significantly increased”. For the same molecule, in series [1] (doxorubicin-treated mice (20 mg/kg, vehicle)), the fractional shortening was found to be 33.5±0.4%. The “decrease in body weight (body weight gain)” value in series [2] (doxorubicin 20 mg/kg i.p., surviving vehicle-treated mice, day of sacrifice minus before injection) is -4.2 ± 0.5 g. In addition, the heart weight in series [5] (doxorubicin 20 mg/kg + vehicle) stood at 102.3 ± 4.6 mg. In addition, the “mice died before the end of experimental protocol” value in series [3] (doxorubicin 20 mg/kg i.p. mice treated with vehicle, up to D5) is reported as about 50%. In addition, the “increase in LDH release compared to control group” value in series [4] (doxorubicin 20 mg/kg + vehicle) is listed as “more than 3 fold”.

For the origin of these results see US12642812B2, “Nicotinamide mononucleotide derivatives and use thereof in the treatment and prevention of an antineoplastic-induced toxicity” (NUVAMID SA, priority 2020, dated 2026).
